The results in this text go back to publication PMC8213057, “Targeting ALK2: An Open Science Approach to Developing Therapeutics for the Treatment of Diffuse Intrinsic Pontine Glioma” (Journal of Medicinal Chemistry, 2020).

Broadly, the IC50 is the concentration needed to halve the response being measured.

Values joined by “and” are separate entries in the source; they are usually repeats but may differ in a detail not shown here. Equal entries are not always repeated. Where only a bound is given, the exact number is not on record here.

Data set [1] addresses CYP2B6.
Data set [2] concerns ALK4/ACVR1B.
Data set [3] addresses T1, CYP1A2 (Homo sapiens, UniProt P05177).
T1 construct: tissue Corning 452117; host or cells: pooled human liver microsomes (UltraPool HLM 150, mixed gender)
Briefly: CYP inhibition assay. The data set is classed as in vitro ADME. Conditions: human liver microsomes. Background: Liver microsomes are vesicles of endoplasmic reticulum, rich in cytochrome P450 enzymes.

In data set [4] the target is CK2a (Homo sapiens, UniProt P68400). Conditions: 1 μM; Run 1, Run 2.
Sequence of CK2a (P68400 whole entry): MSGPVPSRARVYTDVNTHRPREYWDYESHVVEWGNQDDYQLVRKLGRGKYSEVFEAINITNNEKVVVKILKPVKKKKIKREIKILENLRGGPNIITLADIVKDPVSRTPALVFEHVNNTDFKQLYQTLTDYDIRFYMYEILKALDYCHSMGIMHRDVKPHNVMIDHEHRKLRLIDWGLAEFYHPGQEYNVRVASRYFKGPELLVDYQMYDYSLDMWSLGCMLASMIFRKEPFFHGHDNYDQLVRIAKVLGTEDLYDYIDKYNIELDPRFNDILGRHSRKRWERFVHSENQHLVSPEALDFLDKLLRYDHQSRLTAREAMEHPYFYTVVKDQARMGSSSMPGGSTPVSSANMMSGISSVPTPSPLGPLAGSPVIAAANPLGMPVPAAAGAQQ
For data set [5], the target named is T2, DCAMKL2 (Homo sapiens, UniProt Q8N568).
T2 sequence (Q8N568 1-766): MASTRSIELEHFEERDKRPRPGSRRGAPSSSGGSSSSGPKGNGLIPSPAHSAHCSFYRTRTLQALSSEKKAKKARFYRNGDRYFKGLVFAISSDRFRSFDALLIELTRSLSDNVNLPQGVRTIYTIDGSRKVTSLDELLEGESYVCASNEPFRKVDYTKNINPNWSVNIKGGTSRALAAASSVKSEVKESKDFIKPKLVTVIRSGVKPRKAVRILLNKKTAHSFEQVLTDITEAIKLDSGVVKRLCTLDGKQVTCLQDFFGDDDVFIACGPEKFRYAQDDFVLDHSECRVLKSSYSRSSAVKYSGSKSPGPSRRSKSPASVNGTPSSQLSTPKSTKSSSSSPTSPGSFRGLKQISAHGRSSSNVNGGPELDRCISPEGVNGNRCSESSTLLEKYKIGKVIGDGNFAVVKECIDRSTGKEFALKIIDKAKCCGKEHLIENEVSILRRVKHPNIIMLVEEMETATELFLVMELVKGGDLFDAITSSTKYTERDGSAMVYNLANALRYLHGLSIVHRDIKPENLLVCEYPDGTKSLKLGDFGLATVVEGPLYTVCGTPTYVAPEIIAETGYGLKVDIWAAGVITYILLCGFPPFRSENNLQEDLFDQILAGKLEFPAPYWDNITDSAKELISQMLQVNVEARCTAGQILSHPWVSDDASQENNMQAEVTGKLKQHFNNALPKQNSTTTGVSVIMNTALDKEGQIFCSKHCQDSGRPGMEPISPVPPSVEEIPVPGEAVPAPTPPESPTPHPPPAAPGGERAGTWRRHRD
Conditions: 1 μM; Run 1, Run 2.

The target of data set [6] is DYRK1/DYRK1A (Homo sapiens, UniProt Q13627). As to conditions: 1 μM; Run 1, Run 2.
The target in data set [7] is MLK4 (Homo sapiens, UniProt Q5TCX8). Conditions: 1 μM; Run 1, Run 2.
Sequence of MLK4 (Q5TCX8 whole entry): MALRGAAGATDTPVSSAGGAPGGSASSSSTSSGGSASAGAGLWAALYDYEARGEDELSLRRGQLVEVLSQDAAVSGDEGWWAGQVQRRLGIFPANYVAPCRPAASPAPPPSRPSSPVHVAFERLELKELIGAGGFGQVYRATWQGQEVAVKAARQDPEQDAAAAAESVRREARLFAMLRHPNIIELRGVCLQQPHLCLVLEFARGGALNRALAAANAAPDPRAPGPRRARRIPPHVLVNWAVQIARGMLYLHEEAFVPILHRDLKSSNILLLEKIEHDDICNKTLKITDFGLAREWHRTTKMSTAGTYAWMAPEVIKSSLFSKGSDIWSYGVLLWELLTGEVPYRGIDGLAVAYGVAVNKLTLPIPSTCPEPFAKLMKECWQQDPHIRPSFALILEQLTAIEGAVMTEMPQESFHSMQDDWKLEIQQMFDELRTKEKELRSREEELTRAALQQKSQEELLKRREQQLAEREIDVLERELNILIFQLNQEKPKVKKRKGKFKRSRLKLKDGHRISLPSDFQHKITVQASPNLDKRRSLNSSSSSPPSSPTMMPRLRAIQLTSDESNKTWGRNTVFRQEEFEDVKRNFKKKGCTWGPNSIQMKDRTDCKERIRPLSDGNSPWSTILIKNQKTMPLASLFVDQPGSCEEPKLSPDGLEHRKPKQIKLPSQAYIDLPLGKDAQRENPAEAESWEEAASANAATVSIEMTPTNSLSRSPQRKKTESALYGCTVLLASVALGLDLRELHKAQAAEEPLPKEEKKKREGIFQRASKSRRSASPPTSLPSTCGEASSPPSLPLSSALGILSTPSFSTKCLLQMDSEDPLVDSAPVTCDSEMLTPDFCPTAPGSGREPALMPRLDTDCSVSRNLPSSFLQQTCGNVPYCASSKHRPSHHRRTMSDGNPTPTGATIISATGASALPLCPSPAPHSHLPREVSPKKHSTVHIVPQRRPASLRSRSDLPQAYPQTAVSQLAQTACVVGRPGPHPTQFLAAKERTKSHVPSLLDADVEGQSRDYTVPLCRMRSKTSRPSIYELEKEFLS
In data set [8] the target is T3, SGK3/SGKL (Homo sapiens, UniProt Q96BR1).
T3 sequence (Q96BR1 1-496): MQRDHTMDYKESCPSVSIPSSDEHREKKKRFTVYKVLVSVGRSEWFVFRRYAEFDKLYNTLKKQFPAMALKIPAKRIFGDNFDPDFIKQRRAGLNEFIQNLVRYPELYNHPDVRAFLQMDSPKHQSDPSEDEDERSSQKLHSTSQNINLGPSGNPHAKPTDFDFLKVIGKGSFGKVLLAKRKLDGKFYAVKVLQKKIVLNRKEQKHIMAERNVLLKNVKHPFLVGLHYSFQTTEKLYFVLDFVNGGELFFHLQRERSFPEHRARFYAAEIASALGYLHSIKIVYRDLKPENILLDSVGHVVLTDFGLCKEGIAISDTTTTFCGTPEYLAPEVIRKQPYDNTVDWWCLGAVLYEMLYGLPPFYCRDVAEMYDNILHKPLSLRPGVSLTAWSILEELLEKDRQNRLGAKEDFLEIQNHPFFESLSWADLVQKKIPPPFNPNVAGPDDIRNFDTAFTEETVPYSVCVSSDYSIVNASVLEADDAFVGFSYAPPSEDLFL
As to conditions: 1 μM; Run 1, Run 2.

In data set [9] the target is STK39/STLK3 (Homo sapiens, UniProt Q9UEW8). Conditions: 1 μM; Run 1, Run 2.
The target of data set [10] is CAMKK2 (Homo sapiens, UniProt Q96RR4). Briefly: biochemical. Conditions: read-out: % enzyme activity, 1 μM; Run 1, Run 2.
Sequence of CAMKK2 (Q96RR4 whole entry): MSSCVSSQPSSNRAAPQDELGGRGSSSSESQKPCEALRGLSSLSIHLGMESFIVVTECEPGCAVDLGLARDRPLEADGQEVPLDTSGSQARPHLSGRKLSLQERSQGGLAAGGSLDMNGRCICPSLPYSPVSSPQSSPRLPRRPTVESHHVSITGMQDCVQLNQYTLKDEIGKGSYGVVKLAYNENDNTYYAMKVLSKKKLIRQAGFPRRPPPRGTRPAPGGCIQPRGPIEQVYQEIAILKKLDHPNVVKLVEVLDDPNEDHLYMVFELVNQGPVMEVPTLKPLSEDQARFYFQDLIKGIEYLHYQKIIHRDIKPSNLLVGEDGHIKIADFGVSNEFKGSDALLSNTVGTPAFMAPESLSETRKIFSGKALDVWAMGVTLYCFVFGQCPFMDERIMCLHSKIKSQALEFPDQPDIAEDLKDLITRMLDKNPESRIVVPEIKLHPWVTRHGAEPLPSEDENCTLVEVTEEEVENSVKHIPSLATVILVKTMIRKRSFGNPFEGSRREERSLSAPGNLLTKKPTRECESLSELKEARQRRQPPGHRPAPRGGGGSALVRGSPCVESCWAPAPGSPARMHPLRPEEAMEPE
Data set [11] deals with CK1g2 (Homo sapiens, UniProt P78368). Briefly: biochemical. As to conditions: read-out: % enzyme activity, 1 μM; Run 1, Run 2.
Sequence of CK1g2 (P78368 whole entry): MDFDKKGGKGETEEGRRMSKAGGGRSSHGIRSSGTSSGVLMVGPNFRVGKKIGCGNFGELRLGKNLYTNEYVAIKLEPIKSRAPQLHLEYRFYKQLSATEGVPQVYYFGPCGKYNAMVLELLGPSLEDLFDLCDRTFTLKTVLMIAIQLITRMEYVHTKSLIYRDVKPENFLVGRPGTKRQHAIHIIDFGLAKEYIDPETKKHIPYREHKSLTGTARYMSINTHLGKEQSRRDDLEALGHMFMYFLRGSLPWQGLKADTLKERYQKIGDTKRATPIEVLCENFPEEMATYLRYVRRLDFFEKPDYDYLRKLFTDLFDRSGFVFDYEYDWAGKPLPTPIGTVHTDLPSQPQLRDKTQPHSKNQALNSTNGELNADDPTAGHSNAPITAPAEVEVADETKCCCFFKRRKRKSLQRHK
Data set [12] addresses T4, IKKe/IKBKE (Homo sapiens, UniProt Q14164).
T4 sequence (Q14164 1-716): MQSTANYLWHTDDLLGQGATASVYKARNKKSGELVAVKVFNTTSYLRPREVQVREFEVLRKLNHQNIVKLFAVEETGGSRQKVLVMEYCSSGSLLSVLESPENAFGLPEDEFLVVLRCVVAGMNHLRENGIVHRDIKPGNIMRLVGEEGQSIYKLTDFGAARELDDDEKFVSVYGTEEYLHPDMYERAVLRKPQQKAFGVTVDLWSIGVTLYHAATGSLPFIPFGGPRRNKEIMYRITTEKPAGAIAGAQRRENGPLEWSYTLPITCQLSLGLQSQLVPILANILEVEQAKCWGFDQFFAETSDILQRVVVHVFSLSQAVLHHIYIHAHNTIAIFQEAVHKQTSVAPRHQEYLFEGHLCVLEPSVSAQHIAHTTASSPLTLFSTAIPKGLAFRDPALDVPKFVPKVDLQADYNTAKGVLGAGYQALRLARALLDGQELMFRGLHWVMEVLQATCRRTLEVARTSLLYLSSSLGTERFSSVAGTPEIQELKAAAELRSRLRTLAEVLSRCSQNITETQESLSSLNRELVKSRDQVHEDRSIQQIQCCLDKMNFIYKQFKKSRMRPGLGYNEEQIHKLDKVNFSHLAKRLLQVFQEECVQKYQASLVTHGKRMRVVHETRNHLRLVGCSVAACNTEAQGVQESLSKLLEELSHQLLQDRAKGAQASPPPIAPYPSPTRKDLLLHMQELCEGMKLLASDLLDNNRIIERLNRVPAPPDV
Briefly: biochemical. Conditions: read-out: % enzyme activity, 1 μM; Run 1, Run 2.

Data set [13] deals with PKCtheta (Homo sapiens, UniProt Q04759). Nature of the data set: biochemical. Conditions: read-out: % enzyme activity, 1 μM; Run 1, Run 2.
Sequence of PKCtheta (Q04759 whole entry): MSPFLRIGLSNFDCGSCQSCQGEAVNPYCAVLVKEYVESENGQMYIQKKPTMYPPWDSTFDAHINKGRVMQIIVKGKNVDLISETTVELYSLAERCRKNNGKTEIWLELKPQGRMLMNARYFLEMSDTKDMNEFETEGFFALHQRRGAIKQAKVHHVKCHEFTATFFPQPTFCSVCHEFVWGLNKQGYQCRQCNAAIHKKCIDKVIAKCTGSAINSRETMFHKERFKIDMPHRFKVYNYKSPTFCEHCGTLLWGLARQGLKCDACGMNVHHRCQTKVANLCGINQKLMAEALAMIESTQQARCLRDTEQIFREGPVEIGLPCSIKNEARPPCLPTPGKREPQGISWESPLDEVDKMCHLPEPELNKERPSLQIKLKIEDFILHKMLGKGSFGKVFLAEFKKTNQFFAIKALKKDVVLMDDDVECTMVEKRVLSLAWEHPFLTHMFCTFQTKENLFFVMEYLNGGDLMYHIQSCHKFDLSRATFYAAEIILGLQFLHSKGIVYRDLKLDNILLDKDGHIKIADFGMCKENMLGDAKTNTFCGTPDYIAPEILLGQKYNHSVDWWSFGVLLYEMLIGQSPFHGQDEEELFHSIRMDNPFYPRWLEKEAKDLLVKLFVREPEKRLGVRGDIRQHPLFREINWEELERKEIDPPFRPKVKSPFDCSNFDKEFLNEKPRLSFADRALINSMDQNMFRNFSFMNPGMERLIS
Data set [14] deals with PKN1/PRK1 (Homo sapiens, UniProt Q16512). Briefly: biochemical. Conditions: read-out: % enzyme activity, 1 μM; Run 1, Run 2.
The target of data set [15] is TTBK1 (Homo sapiens, UniProt Q5TCY1). Nature of the data set: biochemical. As to conditions: read-out: % enzyme activity, 1 μM; Run 1, Run 2.
Sequence of TTBK1 (Q5TCY1 whole entry): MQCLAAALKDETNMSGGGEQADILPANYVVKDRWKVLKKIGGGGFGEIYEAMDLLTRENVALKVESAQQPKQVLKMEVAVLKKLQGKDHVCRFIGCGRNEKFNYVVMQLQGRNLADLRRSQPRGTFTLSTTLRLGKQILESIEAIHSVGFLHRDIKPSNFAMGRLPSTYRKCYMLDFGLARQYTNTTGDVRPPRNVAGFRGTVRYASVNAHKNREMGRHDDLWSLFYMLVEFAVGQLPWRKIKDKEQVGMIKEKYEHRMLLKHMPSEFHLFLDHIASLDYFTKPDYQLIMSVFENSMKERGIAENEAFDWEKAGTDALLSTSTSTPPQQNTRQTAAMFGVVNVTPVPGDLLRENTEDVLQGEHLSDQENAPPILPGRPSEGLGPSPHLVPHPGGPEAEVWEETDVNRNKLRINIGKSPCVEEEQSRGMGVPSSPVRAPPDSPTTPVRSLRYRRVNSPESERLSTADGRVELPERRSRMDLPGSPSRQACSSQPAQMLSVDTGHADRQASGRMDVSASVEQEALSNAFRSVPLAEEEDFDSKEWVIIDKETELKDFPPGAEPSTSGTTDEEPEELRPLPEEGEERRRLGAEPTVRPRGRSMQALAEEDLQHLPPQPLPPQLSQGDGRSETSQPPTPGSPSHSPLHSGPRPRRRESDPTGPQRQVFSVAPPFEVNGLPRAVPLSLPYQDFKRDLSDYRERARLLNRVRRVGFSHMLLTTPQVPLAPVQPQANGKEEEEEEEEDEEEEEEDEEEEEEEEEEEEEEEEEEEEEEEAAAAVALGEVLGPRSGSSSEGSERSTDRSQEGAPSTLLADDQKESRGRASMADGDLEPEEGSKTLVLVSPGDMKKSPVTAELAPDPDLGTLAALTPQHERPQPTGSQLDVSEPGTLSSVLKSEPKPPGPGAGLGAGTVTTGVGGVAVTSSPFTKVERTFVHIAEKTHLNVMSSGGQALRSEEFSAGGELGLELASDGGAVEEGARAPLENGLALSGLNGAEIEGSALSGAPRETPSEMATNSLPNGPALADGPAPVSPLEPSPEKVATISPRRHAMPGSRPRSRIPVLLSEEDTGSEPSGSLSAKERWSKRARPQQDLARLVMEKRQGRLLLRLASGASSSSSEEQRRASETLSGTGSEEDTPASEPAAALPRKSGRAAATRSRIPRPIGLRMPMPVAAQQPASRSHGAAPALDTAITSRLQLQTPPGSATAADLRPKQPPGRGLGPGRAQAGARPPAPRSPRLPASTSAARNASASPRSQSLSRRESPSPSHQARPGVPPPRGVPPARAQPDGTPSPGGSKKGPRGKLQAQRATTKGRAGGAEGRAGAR

T1 sequence (P05177 whole entry): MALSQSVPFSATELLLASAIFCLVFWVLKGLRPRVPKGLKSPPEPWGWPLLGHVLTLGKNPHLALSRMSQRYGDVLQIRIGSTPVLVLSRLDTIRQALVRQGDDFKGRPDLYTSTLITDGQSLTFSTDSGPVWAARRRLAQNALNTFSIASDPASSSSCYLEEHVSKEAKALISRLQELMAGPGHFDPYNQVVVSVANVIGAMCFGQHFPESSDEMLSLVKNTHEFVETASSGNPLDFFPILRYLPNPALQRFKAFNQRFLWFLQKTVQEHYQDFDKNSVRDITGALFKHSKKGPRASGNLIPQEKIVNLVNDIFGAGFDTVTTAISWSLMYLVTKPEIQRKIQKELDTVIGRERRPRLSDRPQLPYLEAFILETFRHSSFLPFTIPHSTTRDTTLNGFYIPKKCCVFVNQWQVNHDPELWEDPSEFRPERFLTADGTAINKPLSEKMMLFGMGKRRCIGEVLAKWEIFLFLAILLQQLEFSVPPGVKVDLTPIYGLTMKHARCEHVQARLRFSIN

As for `COc1cc(-c2cncc(-c3ccc(N4CCN(C)CC4)cc3)c2C)cc(F)c1C(N)=O` [Compound 26a, 2-Fluoro-6-methoxy-4-(4-methyl-5-(4-(4-methylpiperazin-1-yl)phenyl)pyridin-3-yl)benzamide], in data set [1], the CYP inhibition is greater than 50 µM. Further, the % enzyme activity at 1 μM in data set [2] worked out at 68.8%. In [3], this compound gave an IC50 greater than 50 µM. In addition, the “% enzyme activity” value in [4] was determined as 91.32%; in data set [5], 62.07%; in data set [6], 43.07%; in data set [7], 95.21%; in data set [8] it was 99.35%; in [9] it was 88.76%. Further, the remaining activity at 1 µM is 71.7% in [10]; 78% in [11]; 91.1% in [12]; 85.1% in [13]; 98.5% in data set [14]; 97.3% in data set [15].

In [1], `COc1cc(-c2cncc(-c3ccc(N4C[C@@H](C)N(C)[C@@H](C)C4)cc3)c2C)cc(F)c1C(N)=O` [Compound 26c, 2-Fluoro-6-methoxy-4-(4-methyl-5-(4-((3R,5S)-3,4,5-trimethylpiperazin-1-yl)phenyl)pyridin-3-yl)benzamide] showed a CYP inhibition greater than 50 µM. Moreover, the % enzyme activity at 1 μM in [2] is 82.4% and 81.7%. Moreover, in [3], the concentration for half-maximal inhibition (IC50) is greater than 50 µM. In addition, the “% enzyme activity” value in data set [4] is recorded as 86.32%; in data set [5], 82.24%; in data set [6], 60.05%; in data set [7], 93.38%; in data set [8], 93.33%; in data set [9] it was 93.62%. Moreover, the remaining activity at 1 µM was determined as 76.4% in data set [10]; 87% in [11]; 96.7% in [12]; 87% in [13]; 98.7% in data set [14]; 99.4% in data set [15].
